Data as given in PubChem BioAssay AID1919014 (Molecular Pharmacology Branch, DTP, NCI, 2023).
pIC50: −log10 of the molar value. Values joined by “and” are separate entries in the source; they are usually repeats but may differ in a detail not shown here. Equal values may be shown once.

Test system: NCI-H1341 complex spheroids, percent test/control
Test: Anticancer human tumor NCI-H1341 cell line growth inhibition [AhR];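 note: spheroids exposed to agents for seven days before readout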
Conditions: for viability, T/C: stronger effect = lower value; active = viability on the fitted dose curve at most 10% of control; inactive = the rest
How it was run: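 Spheroids combined tumor cells with HUVEC endothelial cells and human MSCs as stroma. AhR antagonists were paired with standard or investigational drugs, each dosed in half-log steps down from near clinical Cmax, or from 10 microM where Cmax was unknown.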

[1] = curve of first compound, second compound 0.1 µM
[2] = curve of first compound, second compound 0.316 µM
[3] = curve of first compound, second compound 1 µM
[4] = curve of first compound, second compound 3.16 µM
[5] = curve of first compound, second compound 10 µM

COc1cc(Nc2ncc3c(n2)-c2ccc(Cl)cc2C(c2c(F)cccc2OC)=NC3)ccc1C(=O)O + CC(CO)NC(=O)c1cc(-c2ccc(Cl)cc2)nn(-c2cnn(C)c2)c1=O
inactive: viability, T/C (second compound 0.1 µM, first compound 0.0316 µM) 39.7% | viability, T/C (second compound 0.1 µM, first compound 0.1 µM) 45.7% | viability, T/C (second compound 0.1 µM, first compound 0.316 µM) 37.7% | viability, T/C (second compound 0.1 µM, first compound 1 µM) 34.2% | viability, T/C (second compound 0.1 µM, first compound 3.16 µM) 28.7% | viability, T/C (second compound 0.1 µM, first compound 10 µM) 28.6% | viability, T/C (second compound 0.316 µM, first compound 0.0316 µM) 50.5% | viability, T/C (second compound 0.316 µM, first compound 0.1 µM) 34.5% | viability, T/C (second compound 0.316 µM, first compound 0.316 µM) 35.5% | viability, T/C (second compound 0.316 µM, first compound 1 µM) 38.2% | viability, T/C (second compound 0.316 µM, first compound 3.16 µM) 29.5% | viability, T/C (second compound 0.316 µM, first compound 10 µM) 27.6% | viability, T/C (second compound 1 µM, first compound 0.0316 µM) 46.4% | viability, T/C (second compound 1 µM, first compound 0.1 µM) 44.2% | viability, T/C (second compound 1 µM, first compound 0.316 µM) 37.2% | viability, T/C (second compound 1 µM, first compound 1 µM) 37.5% | viability, T/C (second compound 1 µM, first compound 3.16 µM) 33.1% | viability, T/C (second compound 1 µM, first compound 10 µM) 26.7% | viability, T/C (second compound 3.16 µM, first compound 0.0316 µM) 38.4% | viability, T/C (second compound 3.16 µM, first compound 0.1 µM) 35.4% | viability, T/C (second compound 3.16 µM, first compound 0.316 µM) 34% | viability, T/C (second compound 3.16 µM, first compound 1 µM) 35.8% | viability, T/C (second compound 3.16 µM, first compound 3.16 µM) 30.6% | viability, T/C (second compound 3.16 µM, first compound 10 µM) 27.6% | viability, T/C (second compound 10 µM, first compound 0.0316 µM) 35.6% | viability, T/C (second compound 10 µM, first compound 0.1 µM) 39.7% | viability, T/C (second compound 10 µM, first compound 0.316 µM) 39% | viability, T/C (second compound 10 µM, first compound 1 µM) 29.2% | viability, T/C (second compound 10 µM, first compound 3.16 µM) 27% | viability, T/C (second compound 10 µM, first compound 10 µM) 28.2%
> 7.50: pIC50 [1] | pIC50 [2] | pIC50 [3] | pIC50 [4] | pIC50 [5]

O=C(C=Cc1cccc(S(=O)(=O)Nc2ccccc2)c1)NO
6.37 and 6.53: pIC50 (curve of compound)
inactive: viability, T/C (compound 0.0316 µM) 91.7% and 96.1% and 95.8% | viability, T/C (compound 0.1 µM) 87.7% and 85.4% and 80.2% | viability, T/C (compound 0.316 µM) 61.3% and 59% and 42.5% | viability, T/C (compound 1 µM) 17% and 24% and 28%
active: viability, T/C (compound 3.16 µM) 7.15% and 7.86% and 8.15% | viability, T/C (compound 10 µM) 1.07% and 0.78% and 0.36%

CC(C)CC(NC(=O)C(Cc1ccccc1)NC(=O)c1cnccn1)B(O)O (configuration not stated) + Cc1cncc(-c2nc(NCCc3c[nH]c4ccccc34)c3ncn(C(C)C)c3n2)c1
8.40: pIC50 [3]
inactive: viability, T/C (second compound 0.1 µM, first compound 0.000949 µM) 98.4% | viability, T/C (second compound 0.1 µM, first compound 0.003 µM) 89.7% | viability, T/C (second compound 0.316 µM, first compound 0.000949 µM) 80.5% | viability, T/C (second compound 0.316 µM, first compound 0.003 µM) 83.1% | viability, T/C (second compound 1 µM, first compound 0.000949 µM) 83.4% | viability, T/C (second compound 1 µM, first compound 0.003 µM) 65.8% | viability, T/C (second compound 3.16 µM, first compound 0.000949 µM) 56.4% | viability, T/C (second compound 3.16 µM, first compound 0.003 µM) 66.4% | viability, T/C (second compound 10 µM, first compound 0.000949 µM) 28% | viability, T/C (second compound 10 µM, first compound 0.003 µM) 58.4%
8.29: pIC50 [1]
active: viability, T/C (second compound 0.1 µM, first compound 0.00949 µM) 3.87% | viability, T/C (second compound 0.1 µM, first compound 0.03 µM) 0.1% | viability, T/C (second compound 0.1 µM, first compound 0.0949 µM) 0.05% | viability, T/C (second compound 0.1 µM, first compound 0.3 µM) 0.16% | viability, T/C (second compound 0.316 µM, first compound 0.00949 µM) 2.53% | viability, T/C (second compound 0.316 µM, first compound 0.03 µM) 0.14% | viability, T/C (second compound 0.316 µM, first compound 0.0949 µM) 0.06% | viability, T/C (second compound 0.316 µM, first compound 0.3 µM) 0.12% | viability, T/C (second compound 1 µM, first compound 0.00949 µM) 2.45% | viability, T/C (second compound 1 µM, first compound 0.03 µM) 0.11% | viability, T/C (second compound 1 µM, first compound 0.0949 µM) 0.05% | viability, T/C (second compound 1 µM, first compound 0.3 µM) 0.5% | viability, T/C (second compound 3.16 µM, first compound 0.00949 µM) 1.23% | viability, T/C (second compound 3.16 µM, first compound 0.03 µM) 0.06% | viability, T/C (second compound 3.16 µM, first compound 0.0949 µM) 0.08% | viability, T/C (second compound 3.16 µM, first compound 0.3 µM) 0.14% | viability, T/C (second compound 10 µM, first compound 0.00949 µM) 0.22% | viability, T/C (second compound 10 µM, first compound 0.03 µM) 0.14% | viability, T/C (second compound 10 µM, first compound 0.0949 µM) 0.15% | viability, T/C (second compound 10 µM, first compound 0.3 µM) 0.17%
8.32: pIC50 [2]
> 9.02: pIC50 [5]
8.43: pIC50 [4]
